Results published in patent publication US20160331783A1, “BISAMIDE COMPOUNDS AS ALLOSTERIC EFFECTORS FOR REDUCING THE OXYGEN-BINDING AFFINITY OF HEMOGLOBIN” (THE GENERAL HOSPITAL CORPORATION, priority 2014, published 2016).
“And” between values parts separate entries of the source, which are not always exact repeats. Equal entries are not always repeated.

What was measured:
[1] = biological target: deoxygenated hemoglobin (deoxyHb) (Homo sapiens, UniProt P68871); assay: X-ray crystallography of deoxyHb complexed with Compound 1; assay type: binding; conditions: PDB 4L7Y, 1.80 Å
Description: To obtain unliganded hemoglobin structure in complex with 1, freshly prepared solution of 1 in DMSO was incubated with deoxygenated hemoglobin (deoxyHb) (30-50 mg/mL) for 1 h at a hemoglobin tetramer-1 molar ratio of 1:5, followed by crystallization with a low-salt precipitant (0.2 M sodium acetate trihydrate, 0.1 M sodium cacodylate trihydrate, pH 6.6 and 30% PEG 8000). The crystals were washed in a cryo-protectant solution containing mother liquor and glycerol (3:1 ratio) prior to data collection. The complex crystallized in the orthorhombic space group P21212 with typical cell dimensions a=96 Å, b=98 Å and c=65 Å with one functional tetramer per asymmetric unit.
Diffraction data of all crystals were collected at 100 K with a Rigaku IV ++ image plate detector using a CuKα X-rays (k=1.54 Å) from a MicroMax-007 source fitted with Varimax Confocal optics (Rigaku, The Woodlands, Tex.). The datasets were processed with the d*trek software (Rigaku) and the CCP4 suite of programs.
Initial phase for the deoxyHb-1 complex structure was obtained by a molecular replacement method with the program CNS, using human deoxyHb […] tetramer structure (PDB code 2DN2) as a search model. Subsequent structure refinements were performed with the CNS program. Model building and correction were carried out using the graphic program COOT. […]

[2] = biological target: T1, purified human hemoglobin (Homo sapiens, UniProt P68871); assay: Oxygen dissociation curve (ODC) of purified hemoglobin, Hemox analyzer, P50; assay type: biochemical
T1 construct: For experiments with purified hemoglobin, hemoglobin (20 μM as tetramer) was dissolved in DPBS
Description: The ODC of hemoglobin was measured with a Hemox analyzer (TCS Scientific Corporation) at 37° C. For experiments with purified hemoglobin, hemoglobin (20 μM as tetramer) was dissolved in DPBS and antifoam (0.2 vol %, Catalog No. AFA-25, TCS Scientific Corporation) was added to prevent foaming of the sample. Compounds were prepared in DMSO stock solutions then added to hemoglobin. The final concentration of DMSO was adjusted to 5 vol %. For experiments with RBCs, blood was drawn from volunteers into EDTA tubes. The blood was centrifuged for 15 min at 3,000 rpm at 4° C. The supernatant was discarded, and RBCs were washed three times with DPBS, pH 7.4 by dilution to 50% hematocrit. The washed RBCs were then diluted with Hemox solution (mixture of N-[Tris(hydroxymethyl)methyl]-2-aminoethanesulfonic acid (TES, 30 mM), sodium chloride (135 mM), and potassium chloride (5 mM) in water (pH 7.4), TCS Scientific Corporation), and mixed with the test compound stock solutions. When known allosteric effectors NEM (400 μM), 5HMF (2 mM) or formamidine disulfide (400 μM) were mixed with RBCs (20 μM as hemoglobin tetramer) for 1 h at 37° C., P50 was reduced to 8 Torr, 9 Torr, and 9 Torr respectively, which correlated with previous reports (see Garel et al., European Journal of Biochemistry, 1982, 123, 513-519). Data was analyzed by two-tailed, unpaired Student's t test using Microsoft Excel 2007.
A saturating effect on P50 was first determined by adding an increasing concentration of 2,3-DPG and IHP. No increase of P50 of hemoglobin was observed after an addition of a 30-fold molar excess of 2,3-DPG or IHP to hemoglobin. Hemoglobin (20 μM as tetramer) was pre-incubated with either 2,3-DPG (600 μM) or IHP (600 μM) followed by addition of Compound 1 (0, 50, 100, 150 and 200 μM) to the hemoglobin.

[3] = system: RBCs; assay: Hemolysis of RBCs / blood on incubation with compound; assay type: cell-based, human; conditions: compound 20 μM in DPBS with 5% DMSO

## Cc1cc(C)cc(C(=O)N(C)[C@H](Cc2ccc(-c3ccccc3)cc2)C(=O)N[C@@H](Cc2c[nH]c3ccccc23)C(=O)O)c1 [Compound 1, (S)-2-((R)-3-([1,1′-biphenyl]-4-yl)-2-(N,3,5-trimethylbenzamido)propanamido)-3-(1H-indol-3-yl)propanoic acid]
[1]
  Binding site in deoxyHb crystal structure: non-covalently binds at the β-cleft on the dyad axis
[2]; FIG. 3, FIG. 6-7
  Increase of P50 of hemoglobin, dose dependence: concentration-dependent
[2]; hemoglobin 20 μM tetramer, compound 200 μM, DPBS pH 7.4, 5 vol % DMSO, 37° C., hemoglobin alone 17 Torr
  P50 of hemoglobin: 24 Torr and 24±0.4 Torr
[2]; hemoglobin 20 μM, 2,3-DPG 600 μM, Compound 1 200 μM
  P50 of hemoglobin pre-saturated with 2,3-DPG plus Compound 1: 29±0.5 Torr
[2]; hemoglobin 20 μM, 2,3-DPG 600 μM, Compound 1 up to 200 μM
  Synergistic reduction of oxygen binding affinity in combination with 2,3-DPG: synergistic reduction
[2]; hemoglobin 20 μM, IHP 600 μM, Compound 1 up to 200 μM
  Synergistic reduction of oxygen binding affinity in combination with IHP: did not induce a synergistic reduction
[2]; hemoglobin 20 μM, tested compound 120 μM, purified hemoglobin alone 17 Torr
  P50 with purified hemoglobin: 24 Torr
[3]
  Hemolysis of RBCs: hemolysis
